Values joined by “and” are separate entries in the source; they are usually repeats but may differ in a detail not shown here. Identical values can stand only once.
Key:
[1] = biological target: T1, Inhibitor of nuclear factor kappa-B kinase subunit beta (Homo sapiens) (UniProt O14920); conditions: at 1 µM
T1 sequence (whole entry): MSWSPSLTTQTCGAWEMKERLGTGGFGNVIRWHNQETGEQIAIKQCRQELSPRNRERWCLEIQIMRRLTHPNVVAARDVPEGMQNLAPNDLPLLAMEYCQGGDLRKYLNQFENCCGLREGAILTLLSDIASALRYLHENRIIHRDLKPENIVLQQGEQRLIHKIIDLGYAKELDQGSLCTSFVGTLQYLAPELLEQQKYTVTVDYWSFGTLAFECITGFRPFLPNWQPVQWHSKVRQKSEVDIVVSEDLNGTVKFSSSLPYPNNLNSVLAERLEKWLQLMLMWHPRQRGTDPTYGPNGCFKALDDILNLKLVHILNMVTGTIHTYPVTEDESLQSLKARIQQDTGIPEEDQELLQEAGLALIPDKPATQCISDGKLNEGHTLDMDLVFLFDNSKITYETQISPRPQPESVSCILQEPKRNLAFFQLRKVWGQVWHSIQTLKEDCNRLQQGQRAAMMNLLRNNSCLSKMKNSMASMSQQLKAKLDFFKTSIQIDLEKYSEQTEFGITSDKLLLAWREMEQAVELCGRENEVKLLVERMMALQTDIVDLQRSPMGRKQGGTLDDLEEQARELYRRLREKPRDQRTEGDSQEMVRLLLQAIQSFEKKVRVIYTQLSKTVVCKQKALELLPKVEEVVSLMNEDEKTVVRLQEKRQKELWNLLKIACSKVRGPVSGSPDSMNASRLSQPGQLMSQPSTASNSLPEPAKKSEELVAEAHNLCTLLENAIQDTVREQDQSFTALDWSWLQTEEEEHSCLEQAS

[2] = biological target: T2, Inhibitor of nuclear factor kappa-B kinase subunit epsilon (Homo sapiens) (UniProt Q14164); conditions: at 1 µM
T2 sequence (whole entry): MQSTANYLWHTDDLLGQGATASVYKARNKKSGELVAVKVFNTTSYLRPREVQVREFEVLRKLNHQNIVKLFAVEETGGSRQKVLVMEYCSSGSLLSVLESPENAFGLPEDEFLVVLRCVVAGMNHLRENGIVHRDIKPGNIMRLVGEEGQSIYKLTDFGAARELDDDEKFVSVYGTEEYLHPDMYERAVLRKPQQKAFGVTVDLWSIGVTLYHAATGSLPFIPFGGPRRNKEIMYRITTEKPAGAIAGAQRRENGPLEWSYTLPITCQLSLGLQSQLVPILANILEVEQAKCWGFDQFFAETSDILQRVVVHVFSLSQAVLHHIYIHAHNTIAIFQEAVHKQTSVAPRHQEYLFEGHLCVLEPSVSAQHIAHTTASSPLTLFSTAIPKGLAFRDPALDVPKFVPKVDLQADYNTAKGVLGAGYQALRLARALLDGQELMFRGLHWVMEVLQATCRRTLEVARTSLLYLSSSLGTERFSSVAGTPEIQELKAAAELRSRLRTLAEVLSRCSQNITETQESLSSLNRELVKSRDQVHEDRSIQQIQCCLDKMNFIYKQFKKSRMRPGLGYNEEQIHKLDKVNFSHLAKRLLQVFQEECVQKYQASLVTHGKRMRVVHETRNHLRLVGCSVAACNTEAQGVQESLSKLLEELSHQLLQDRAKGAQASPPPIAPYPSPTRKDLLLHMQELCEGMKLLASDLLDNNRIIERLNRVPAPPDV

[3] = biological target: T3, Tyrosine-protein kinase Mer (Homo sapiens) (UniProt Q12866); conditions: at 10 µM
T3 sequence (whole entry): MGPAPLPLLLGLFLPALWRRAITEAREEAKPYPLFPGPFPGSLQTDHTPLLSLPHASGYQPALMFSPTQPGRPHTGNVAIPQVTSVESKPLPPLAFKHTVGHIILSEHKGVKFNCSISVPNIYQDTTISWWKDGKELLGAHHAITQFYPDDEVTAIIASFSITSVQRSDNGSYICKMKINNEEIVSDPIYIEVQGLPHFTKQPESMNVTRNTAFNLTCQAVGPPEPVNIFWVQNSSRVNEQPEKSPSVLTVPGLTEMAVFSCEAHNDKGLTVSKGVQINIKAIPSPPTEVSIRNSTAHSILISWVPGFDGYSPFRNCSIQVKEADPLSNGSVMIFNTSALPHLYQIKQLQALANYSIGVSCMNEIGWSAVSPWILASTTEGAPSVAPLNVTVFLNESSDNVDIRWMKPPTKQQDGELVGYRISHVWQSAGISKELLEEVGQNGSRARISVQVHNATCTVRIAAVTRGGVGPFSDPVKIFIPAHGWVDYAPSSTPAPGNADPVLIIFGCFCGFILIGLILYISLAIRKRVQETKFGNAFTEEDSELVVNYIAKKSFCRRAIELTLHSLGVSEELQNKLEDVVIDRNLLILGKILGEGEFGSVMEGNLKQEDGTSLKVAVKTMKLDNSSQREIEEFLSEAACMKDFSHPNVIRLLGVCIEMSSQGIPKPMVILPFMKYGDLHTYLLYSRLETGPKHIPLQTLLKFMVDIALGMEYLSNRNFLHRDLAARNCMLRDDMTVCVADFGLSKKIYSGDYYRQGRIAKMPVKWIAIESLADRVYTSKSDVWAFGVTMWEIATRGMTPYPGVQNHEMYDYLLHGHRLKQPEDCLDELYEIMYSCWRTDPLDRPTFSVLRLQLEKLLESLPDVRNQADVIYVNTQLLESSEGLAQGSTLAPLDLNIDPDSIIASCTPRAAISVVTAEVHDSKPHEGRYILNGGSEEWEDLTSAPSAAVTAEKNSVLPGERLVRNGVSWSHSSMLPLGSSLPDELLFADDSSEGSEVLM

[4] = biological target: T4, Serine/threonine-protein kinase TBK1 (Homo sapiens) (UniProt Q9UHD2); conditions: at 1 µM
T4 sequence (whole entry): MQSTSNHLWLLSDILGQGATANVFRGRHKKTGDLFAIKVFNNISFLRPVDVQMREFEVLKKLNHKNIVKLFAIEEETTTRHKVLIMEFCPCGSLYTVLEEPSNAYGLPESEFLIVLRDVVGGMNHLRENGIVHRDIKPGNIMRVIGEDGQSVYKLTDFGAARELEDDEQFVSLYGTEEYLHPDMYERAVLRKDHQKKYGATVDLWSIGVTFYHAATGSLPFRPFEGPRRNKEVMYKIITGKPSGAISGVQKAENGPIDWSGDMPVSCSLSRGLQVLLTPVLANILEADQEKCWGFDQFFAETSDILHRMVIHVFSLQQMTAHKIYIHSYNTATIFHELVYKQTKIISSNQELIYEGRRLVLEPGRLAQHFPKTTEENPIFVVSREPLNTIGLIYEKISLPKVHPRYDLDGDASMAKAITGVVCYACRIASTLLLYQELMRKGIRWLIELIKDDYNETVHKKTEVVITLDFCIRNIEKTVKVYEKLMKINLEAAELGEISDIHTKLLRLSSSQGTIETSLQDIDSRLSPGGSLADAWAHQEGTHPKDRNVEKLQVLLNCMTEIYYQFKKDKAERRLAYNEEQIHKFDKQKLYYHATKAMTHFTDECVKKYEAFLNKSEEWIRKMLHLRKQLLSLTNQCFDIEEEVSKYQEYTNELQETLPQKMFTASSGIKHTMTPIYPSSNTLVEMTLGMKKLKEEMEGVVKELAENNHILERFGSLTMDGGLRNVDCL

CNC(=O)c1cncc(/C=C/c2c(Cl)cccc2Cl)c1
inhibition [1]: -3% and -2%
inhibition [2]: 0% and 1%
inhibition [3]: 3%
inhibition [4]: 0% and -1%

Cc1cccc2c1NC(=O)/C2=N\Nc1ccc(S(N)(=O)=O)cc1
inhibition [1]: -2% and -1%
inhibition [2]: 0% and 1%
inhibition [3]: 4%
inhibition [4]: 3% and 0%
